From patent publication EP0900210B1, “ANTIVIRALLY ACTIVE HETEROCYCLIC AZAHEXANE DERIVATIVES” (Novartis AG, priority 1996, dated 1997)

Key:
[1] = target: T1, HIV-1-protease (Human immunodeficiency virus type 1 group M subtype B, UniProt P04585); assay: Inhibition of HIV-1-protease with icosapeptide substrate […] (HPLC); assay type: biochemical; conditions: icosapeptide […] 122 µM, 20 mM MES pH 6.0, one hour at 37°C; read-out: IC50
T1 construct: made in house

[2] = tested on: HIV-1/MN; assay: Protection of MT-2 cells against HIV infection (reverse transcriptase activity in supernatant); assay type: cell-based; conditions: Human immunodeficiency virus 1, MT2, 96 h; read-out: ED90 (the source's name)
Method: For this test, MT-2-cells infected with HIV-1/MN are used. MT-2-cells have been transformed with HTLV-1 (a virus causing leukaemia) and a continuous producer thereof; they are therefore especially sensitive to the cytopathogenic effect of HIV. MT-2-cells can be obtained via the AIDS Research and Reference Reagent Program, Division of AIDS, NIAID, NIH from Dr. Douglas Richman (see J. Biol. Chem. 263, 5870-5875 (1988) and also Science 229, 563-566 1985)). The MT-2-cells are cultured in RPMI 1640-medium (Gibco, Scotland; RPMI comprises an amino acid mixture without glutamine) supplemented with 10% heat-inactivated foetal calf serum, glutamine and standard antibiotics. In all cases the cells, and also the virus stock solution used for the infection (HIV-1/MN), are free of mycoplasms. […] The titre of the HIV-1/MN virus stock solution (determined by titration onto MT-2-cells) is 4.2 x 10^5 TCID50/ml (TCID50 = Tissue Culture Infective Dose = dose that infects 50 % of the MT-2-cells). […] Prior to the test, 0.1 % (v/v) [alpha-^32P]dTTP is added to aliquots of the solution in order to establish a radioactivity of 10 µCi/ml.
After mixing, the plate is incubated for 2 hours at 37°C. […] The radioactivity on the filters is measured in a Matrix Packard 96-well counter (Packard, Zürich, Switzerland). […]

[3] = Pharmacokinetics: plasma level in mice after oral administration; assay type: in vivo, female BALB/c mice; conditions: mouse, oral administration of 120 mg/kg
Method: The blood is centrifuged (12 000 x g, 5 min) and the plasma removed.
The flow rate is 1 ml/min.

[4] = tested on: HIV-1 (infectious clone pNL4-3); assay: Transient DNA transfection assay in HeLaT4 cells, in vitro potency; assay type: cell-based; conditions: Human immunodeficiency virus 1, HeLaT4
Description: (§1) By way of PCR-supported mutagenesis and cloning, HIV-1 protease mutants are generated that are based on the infectious clone pNL4-3 (freely available via the "NIH AIDS reference and reagent program", the original reference is A. Adachi et al. J. Virol (1986) 59, 284-91 - but it can, of course, be any other HIV clone, or even clinical material, provided that comparability is ensured). […] The cloned fragments are, for example, only 500 base pairs in length, all of the remainder being unchanged. By using mutations in always the same clone, direct comparability is ensured, which would not be the case in a direct comparison of clinical samples or of different HIV clones. […] That system is used as a transient DNA transfection system for tests: • 1) in order to identify possible cross-resistances of protease variants to several protease inhibitors; and • 2) in order to establish the potency and resistance profile of novel inhibitor candidates.
(§2) Instead of the strains mentioned, there may be used any human T4-positive cells, such as the HeLa T4 cells, deposited under that name by Richard Axel and Paul Maddon in "NIH AIDS reference and reagent program" and obtainable via that source.

[5] = tested on: 451/76F strain; conditions: 451/76F strain established against Lasinavir; comparison with saquinavir, indinavir, ritonavir
Description: as §1, §2

[6] = tested on: 46I/47V/50V (VX478); assay: Transient DNA transfection assay in HeLaT4 cells, other resistant strains; assay type: cell-based, HIV-1; conditions: 10nM; strains e.g. 46I/47V/50V (VX478); not quantified
Description: as §1, §2

## COC(=O)N[C@H](C(=O)N[C@@H](Cc1ccccc1)[C@@H](O)CN(Cc1ccc(-c2ccccn2)cc1)NC(=O)[C@@H](NC(=O)OC)C(C)(C)C)C(C)(C)C [Example 46, 1-[4-(Pyridin-2-yl)-phenyl]-4(S)-hydroxy-5(S)-2,5-bis[N-(N-methoxycarbonyl-(L)-tert-leucyl)amino]-6-phenyl-2-azahexane]
[1]
  IC50: 26 nM
[2]
  EC90: 3 nM
[3]; 30 min after administration
  concentration at 0.5 h: 21.8 µM
[3]; 90 min after administration
  concentration at 1.5 h: 31.8 µM
[4]
  IC90: < 30 nM
[5]
  activity against a resistant variant: comparable with saquinavir and better than that of indinavir
[6]
  activity compared with other strains: more potent (not quantified) than that of saquinavir, ritonavir and indinavir
